Experimental findings from patent US8278345B2, “Inhibitors of glutaminyl cyclase” (Probiodrug AG, priority 2006, dated 2012) are described below.

In this assay the target is hQC (Homo sapiens, UniProt Q16769). Nature of the assay: Inhibitor assay for glutaminyl cyclase activity (fluorometric, H-Gln-βNA / H-Gln-AMC). It counts as biochemical. The procedure, abridged:
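Coupled fluorometric assay at 30 °C with pyroglutamyl aminopeptidase, in Tris/HCl pH 8.0 with EDTA, substrate H-Gln-βNA (0.2 mM; ex/em 320/410 nm) or H-Gln-AMC (ex/em 380/460 nm), initiated by QC. Screening: 4 mM inhibitor, substrate at 1 KM; Ki from progress curves fitted to competitive inhibition.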

The mark [1] stands for this setting: compound from preparative synthesis, purified, read-out: IC50 hQC.

Read-outs that look alike come from different tables or passages of the source.

Chain of hQC (Q16769 29-361): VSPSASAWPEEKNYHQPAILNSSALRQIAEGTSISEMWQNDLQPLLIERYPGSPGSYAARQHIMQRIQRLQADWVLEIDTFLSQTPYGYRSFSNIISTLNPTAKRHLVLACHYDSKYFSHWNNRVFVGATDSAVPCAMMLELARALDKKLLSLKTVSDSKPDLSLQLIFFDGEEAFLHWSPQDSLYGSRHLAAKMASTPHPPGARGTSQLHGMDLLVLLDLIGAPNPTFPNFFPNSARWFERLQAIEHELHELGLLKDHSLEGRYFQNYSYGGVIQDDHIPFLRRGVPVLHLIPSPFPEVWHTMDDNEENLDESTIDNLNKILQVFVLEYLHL

Broadly, the IC50 is the concentration that gives 50% inhibition. Regarding `Cc1ccc2c(C3C(c4c[nH]c5ccccc45)=C(O)C(=O)N3c3ccc4[nH]cnc4c3)c[nH]c2c1` (centres unmarked) [Compound 320, 1-(1H-Benzoimidazol-5-yl)-3-hydroxy-4-(1H-indol-3-yl)-5-(6-methyl-1H-indol-3-yl)-1,5-dihydro-pyrrol-2-one], the half-maximal inhibitory concentration (IC50) (read-out: IC50) turned out to be 9490 nM.

`Cc1ccc(C2C(C(=O)c3cccs3)=C(O)C(=O)N2c2ccc3[nH]cnc3c2)o1` (centres unmarked) [Compound 321, 1-(1H-Benzoimidazol-5-yl)-3-hydroxy-5-(5-methyl-furan-2-yl)-4-(thiophene-2-carbonyl)-1,5-dihydro-pyrrol-2-one]: the IC50 (read-out: IC50) was 760 nM. For `Cn1cc(C2C(CC(=O)O)=C(O)C(=O)N2c2ccc3[nH]cnc3c2)c2ccccc21` (centres unmarked) [Compound 322, [1-(1H-Benzoimidazol-5-yl)-4-hydroxy-2-(1-methyl-1H-indol-3-yl)-5-oxo-2,5-dihydro-1H-pyrrol-3-yl]-acetic acid], the IC50 (read-out: IC50) was determined as 5800 nM. On the same count and under the same terms, next, `CCCCCC1=C(O)C(=O)N(c2ccc3[nH]cnc3c2)C1c1cccc(F)c1` (centres unmarked) [Compound 323, 1-(1H-Benzoimidazol-5-yl)-5-(3-fluoro-phenyl)-3-hydroxy-4-pentyl-1,5-dihydro-pyrrol-2-one]: 1660 nM; `CCCC(=O)C1=C(O)C(=O)N(c2ccc3[nH]cnc3c2)C1CCC(=O)O` (centres unmarked) [Compound 324, 3-[1-(1H-Benzoimidazol-5-yl)-3-butyryl-4-hydroxy-5-oxo-2,5-dihydro-1H-pyrrol-2-yl]-propionic acid]: 6610 nM. `CCCCCC1=C(O)C(=O)N(c2ccc3[nH]cnc3c2)C1c1ccccc1F` (centres unmarked) [Compound 325, 1-(1H-Benzoimidazol-5-yl)-5-(2-fluoro-phenyl)-3-hydroxy-4-pentyl-1,5-dihydro-pyrrol-2-one]: the IC50 (read-out: IC50) worked out at 940 nM. Turning to `CC1=C(O)C(=O)N(c2ccc3[nH]cnc3c2)C1c1nccs1` (centres unmarked) [Compound 326, 1-(1H-Benzoimidazol-5-yl)-3-hydroxy-4-methyl-5-thiazol-2-yl-1,5-dihydro-pyrrol-2-one], the IC50 (read-out: IC50) was determined as 3280 nM. For the compound `CC(C)CC(=O)C1=C(O)C(=O)N(c2ccc3[nH]cnc3c2)C1c1ccc2cccc(O)c2n1` (centres unmarked) [Compound 327, 1-(1H-Benzoimidazol-5-yl)-3-hydroxy-5-(8-hydroxy-quinolin-2-yl)-4-(3-methyl-butyryl)-1,5-dihydro-pyrrol-2-one], the concentration for half-maximal inhibition (IC50) turned out to be 4.5 nM under setting [1] and 4 nM (read-out: IC50). For `CC1=C(O)C(=O)N(c2ccc3[nH]cnc3c2)C1c1coc2ccc(C)cc2c1=O` (centres unmarked) [Compound 328, 1-(1H-Benzoimidazol-5-yl)-3-hydroxy-4-methyl-5-(6-methyl-4-oxo-4H-chromen-3-yl)-1,5-dihydro-pyrrol-2-one], the IC50 (read-out: IC50) was determined as 310 nM.

In the case of `Cn1cc(C2C(c3c[nH]c4ccccc34)=C(O)C(=O)N2c2ccc3[nH]cnc3c2)c2ccccc21` (centres unmarked) [Compound 329, 1-(1H-Benzoimidazol-5-yl)-3-hydroxy-4-(1H-indol-3-yl)-5-(1-methyl-1H-indol-3-yl)-1,5-dihydro-pyrrol-2-one], the half-maximal inhibitory concentration (IC50) (read-out: IC50) was found to be 6250 nM. In the case of `CC(=O)C1=C(O)C(=O)N(c2ccc3[nH]cnc3c2)C1c1cccc(C)n1` (centres unmarked) [Compound 330, 4-Acetyl-1-(1H-benzoimidazol-5-yl)-3-hydroxy-5-(6-methyl-pyridin-2-yl)-1,5-dihydro-pyrrol-2-one], where the note is “read-out: IC50”, the IC50 is 2110 nM.

In the case of `Cc1ccc2occ(C3C(C(C)C)=C(O)C(=O)N3c3ccc4[nH]cnc4c3)c(=O)c2c1` (centres unmarked) [Compound 331, 1-(1H-Benzoimidazol-5-yl)-3-hydroxy-4-isopropyl-5-(6-methyl-4-oxo-4H-chromen-3-yl)-1,5-dihydro-pyrrol-2-one], under “read-out: IC50”, the IC50 was 1390 nM.

Regarding `Cc1ccc(O)c(C2C(c3c[nH]c4ccccc34)=C(O)C(=O)N2c2ccc3[nH]cnc3c2)c1` (centres unmarked) [Compound 332, 1-(1H-Benzoimidazol-5-yl)-3-hydroxy-5-(2-hydroxy-5-methyl-phenyl)-4-(1H-indol-3-yl)-1,5-dihydro-pyrrol-2-one], the IC50 (read-out: IC50) is 7690 nM.

`CC(=O)C1=C(O)C(=O)N(c2ccc3[nH]cnc3c2)C1c1ccc(O)c(Br)c1` (centres unmarked) [Compound 333, 4-Acetyl-1-(1H-benzoimidazol-5-yl)-5-(3-bromo-4-hydroxy-phenyl)-3-hydroxy-1,5-dihydro-pyrrol-2-one]: the half-inhibitory concentration (IC50) (read-out: IC50) was 760 nM. As to `CCCC(=O)C1=C(O)C(=O)N(c2ccc3[nH]cnc3c2)C1c1cccc(C)n1` (centres unmarked) [Compound 334, 1-(1H-Benzoimidazol-5-yl)-4-butyryl-3-hydroxy-5-(6-methyl-pyridin-2-yl)-1,5-dihydro-pyrrol-2-one], under “read-out: IC50”, the IC50 stood at 2650 nM. On the same count and under the same terms, with `CCCC(=O)C1=C(O)C(=O)N(c2ccc3[nH]cnc3c2)C1c1cc(C(F)(F)F)cc(C(F)(F)F)c1` (centres unmarked) [Compound 335, 1-(1H-Benzoimidazol-5-yl)-5-(3,5-bis-trifluoromethyl-phenyl)-4-butyryl-3-hydroxy-1,5-dihydro-pyrrol-2-one] the figure was 6790 nM. Consider `CSCC1=C(O)C(=O)N(c2ccc3[nH]cnc3c2)C1c1cc(Cl)ccc1O` (centres unmarked) [Compound 336, 1-(1H-Benzoimidazol-5-yl)-5-(5-chloro-2-hydroxy-phenyl)-3-hydroxy-4-methylsulfanylmethyl-1,5-dihydro-pyrrol-2-one], for which the IC50 under setting [1] was determined as 156 nM and the IC50 (read-out: IC50) is 310 nM. Regarding `CC1=C(O)C(=O)N(c2ccc3[nH]cnc3c2)C1c1cc(Cl)ccc1O` (centres unmarked) [Compound 337, 1-(1H-Benzoimidazol-5-yl)-5-(5-chloro-2-hydroxy-phenyl)-3-hydroxy-4-methyl-1,5-dihydro-pyrrol-2-one], the half-maximal inhibitory concentration (IC50) (read-out: IC50) was 5800 nM. With `O=C(O)CC1=C(O)C(=O)N(c2ccc3[nH]cnc3c2)C1c1cc(Br)ccc1F` (centres unmarked) [Compound 338, [1-(1H-Benzoimidazol-5-yl)-2-(5-bromo-2-fluoro-phenyl)-4-hydroxy-5-oxo-2,5-dihydro-1H-pyrrol-3-yl]-acetic acid], the half-inhibitory concentration (IC50) (read-out: IC50) was 2200 nM. Turning to `O=C1C(O)=C(c2ccccc2)C(c2c(F)ccc(Cl)c2F)N1c1ccc2[nH]cnc2c1` (centres unmarked) [Compound 339, 1-(1H-Benzoimidazol-5-yl)-5-(3-chloro-2,6-difluoro-phenyl)-3-hydroxy-4-phenyl-1,5-dihydro-pyrrol-2-one], the 50% inhibitory concentration (IC50) (read-out: IC50) was found to be 580 nM. On the same count and under the same terms, with `CCC1=C(O)C(=O)N(c2ccc3[nH]cnc3c2)C1c1cc(C)c(C)o1` (centres unmarked) [Compound 340, 1-(1H-Benzoimidazol-5-yl)-5-(4,5-dimethyl-furan-2-yl)-4-ethyl-3-hydroxy-1,5-dihydro-pyrrol-2-one] the figure was 3370 nM; with `CC(C)(C)C(=O)C1=C(O)C(=O)N(c2ccc3[nH]cnc3c2)C1c1cc(F)cc(F)c1F` (centres unmarked) [Compound 341, 1-(1H-Benzoimidazol-5-yl)-4-(2,2-dimethyl-propionyl)-3-hydroxy-5-(2,3,5-trifluoro-phenyl)-1,5-dihydro-pyrrol-2-one], 4900 nM; with `Cc1cc(C2C(C(=O)C3CC3)=C(O)C(=O)N2c2ccc3[nH]cnc3c2)cc(C)c1O` (centres unmarked) [Compound 342, 1-(1H-Benzoimidazol-5-yl)-4-cyclopropanecarbonyl-3-hydroxy-5-(4-hydroxy-3,5-dimethyl-phenyl)-1,5-dihydro-pyrrol-2-one], 310 nM.

For the compound `Cc1ccc(O)c(C2C(C(=O)C3CC3)=C(O)C(=O)N2c2ccc3[nH]cnc3c2)c1` (centres unmarked) [Compound 343, 1-(1H-Benzoimidazol-5-yl)-4-cyclopropanecarbonyl-3-hydroxy-5-(2-hydroxy-5-methyl-phenyl)-1,5-dihydro-pyrrol-2-one], for the setting “read-out: IC50”, the IC50 turned out to be 3280 nM. The same measure, in the same setting: with `CCCC(=O)C1=C(O)C(=O)N(c2ccc3[nH]cnc3c2)C1c1ccc(O)c(Br)c1` (centres unmarked) [Compound 344, 1-(1H-Benzoimidazol-5-yl)-5-(3-bromo-4-hydroxy-phenyl)-4-butyryl-3-hydroxy-1,5-dihydro-pyrrol-2-one] the figure was 400 nM; with `CC(=O)C1=C(O)C(=O)N(c2ccc3[nH]cnc3c2)C1c1ccc(N2CCCC2)cc1` (centres unmarked) [Compound 345, 4-Acetyl-1-(1H-benzoimidazol-5-yl)-3-hydroxy-5-(4-pyrrolidin-1-yl-phenyl)-1,5-dihydro-pyrrol-2-one], 1570 nM. With `Cc1ccc2occ(C3C(c4c[nH]c5ccccc45)=C(O)C(=O)N3c3ccc4[nH]cnc4c3)c(=O)c2c1` (centres unmarked) [Compound 346, 1-(1H-Benzoimidazol-5-yl)-3-hydroxy-4-(1H-indol-3-yl)-5-(6-methyl-4-oxo-4H-chromen-3-yl)-1,5-dihydro-pyrrol-2-one], under “read-out: IC50”, the concentration for half-maximal inhibition (IC50) turned out to be 4990 nM.

Regarding `CC1=C(O)C(=O)N(c2ccc3[nH]cnc3c2)C1c1csc2ccccc12` (centres unmarked) [Compound 347, 5-Benzo[b]thiophen-3-yl-1-(1H-benzoimidazol-5-yl)-3-hydroxy-4-methyl-1,5-dihydro-pyrrol-2-one], the IC50 (read-out: IC50) is 3100 nM.

With `CC(C)C1=C(O)C(=O)N(c2ccc3[nH]cnc3c2)C1c1ccsc1` (centres unmarked) [Compound 348, 1-(1H-Benzoimidazol-5-yl)-3-hydroxy-4-isopropyl-5-thiophen-3-yl-1,5-dihydro-pyrrol-2-one], under “read-out: IC50”, the IC50 was found to be 4090 nM. Take `CC(=O)C1=C(O)C(=O)N(c2ccc3[nH]cnc3c2)C1c1nccs1` (centres unmarked) [Compound 349, 4-Acetyl-1-(1H-benzoimidazol-5-yl)-3-hydroxy-5-thiazol-2-yl-1,5-dihydro-pyrrol-2-one]: the half-inhibitory concentration (IC50) (read-out: IC50) came to 1030 nM. As to `CC1=C(O)C(=O)N(c2ccc3[nH]cnc3c2)C1c1ccc2nonc2c1` (centres unmarked) [Compound 351, 1-(1H-Benzoimidazol-5-yl)-5-(benzo[c][1,2,5]oxadiazol-5-yl)-3-hydroxy-4-methyl-1,5-dihydro-pyrrol-2-one], the IC50 (read-out: IC50) turned out to be 1210 nM. For the compound `CC(=O)C1=C(O)C(=O)N(c2ccc3[nH]cnc3c2)C1c1ccc(CO)o1` (centres unmarked) [Compound 352, 4-Acetyl-1-(1H-benzoimidazol-5-yl)-3-hydroxy-5-(5-hydroxymethyl-furan-2-yl)-1,5-dihydro-pyrrol-2-one], the half-maximal inhibitory concentration (IC50) (read-out: IC50) came to 4 nM. For `CCCC(=O)C1=C(O)C(=O)N(c2ccc3[nH]cnc3c2)C1c1ccco1` (centres unmarked) [Compound 353, 1-(1H-Benzoimidazol-5-yl)-4-butyryl-5-furan-2-yl-3-hydroxy-1,5-dihydro-pyrrol-2-one], the IC50 (read-out: IC50) is 2740 nM.
